Source: patent US8952039B2, “Pyridone derivatives and their use in the treatment, ameloriation or prevention of a viral disease” (priority 2013, dated 2015)

Molecular target: T1, influenza A virus (IAV) PA-Nter fragment (amino acids 1-209) (Influenza A virus, UniProt P31343)
T1 construct: PA-Nter fragment (amino acids 1-209); made in house
Assay: FRET endonuclease activity assay
Format: biochemical
Conditions: for inhibition at 10 µM: 10 μM compound, % reduction of v0 compared to untreated; for IC50: calculated from initial reaction velocities (v0), 0.5 μM PA-Nter, 1.6 μM RNA substrate

| SMILES | inhibition at 10 µM [%] | IC50 [nM] |
| --- | --- | --- |
| CNC(=O)c1c(O)c(=O)cc(CNS(=O)(=O)c2ccc(Cl)cc2)n1C | 7 | – |
| Cn1c(Cc2ccccc2-c2ccccc2)cc(=O)c(O)c1C(N)=O | 17 | – |
| Cc1ccc(S(=O)(=O)NCc2cc(=O)c(O)c(C(=O)NC(C)C)n2C)cc1 | 8 | – |
| Cc1ccccc1S(=O)(=O)NCc1cc(=O)c(O)c(C(=O)O)n1C | – | 280 |
| CNC(=O)c1c(O)c(=O)cc(CNS(=O)(=O)c2ccccc2Cl)n1C | – | 9000 |
| CC(C)NC(=O)c1c(O)c(=O)cc(CNS(=O)(=O)c2cccc(Cl)c2)n1C | 13 | – |
| Cn1c(CNS(=O)(=O)c2ccccc2Cl)cc(=O)c(O)c1C(=O)O | – | 110 |
| CNC(=O)c1c(O)c(=O)cc(CNS(=O)(=O)c2cccc(C)c2)n1C | 33 | – |
| CNC(=O)c1c(O)c(=O)cc(Cc2ccccc2-c2ccccc2)n1C | 10 | – |
| Cc1ccc(S(=O)(=O)NCc2cc(=O)c(O)c(C(=O)O)n2C)cc1 | – | 970 |
| CC(C)NC(=O)c1c(O)c(=O)ccn1C(C)Cc1ccccc1 (centres unmarked) | 7 | – |
| Cc1cccc(S(=O)(=O)NCc2cc(=O)c(O)c(C(=O)O)n2C)c1 | – | 530 |
| Cn1c(Cc2ccccc2-c2ccccc2)cc(=O)c(O)c1C(=O)O | – | 400 |
| Cn1c(CNS(=O)(=O)c2ccccc2)cc(=O)c(O)c1C(=O)O | – | 560 |
| CC(C)NC(=O)c1c(O)c(=O)cc(Cc2ccccc2-c2ccccc2)n1C | 13 | – |
| CNC(=O)c1c(O)c(=O)cc(CNS(=O)(=O)c2cccc(Cl)c2)n1C | 23 | – |
| CC(C)NC(=O)c1c(O)c(=O)cc(CNS(=O)(=O)c2ccccc2)n1C | 13 | – |
| CC(C)NC(=O)c1c(O)c(=O)cc(CNS(=O)(=O)c2ccc(Cl)cc2)n1C | 11 | – |
| CNC(=O)c1c(O)c(=O)cc(CNS(=O)(=O)c2ccccc2)n1C | 13 | – |
| CC(C)NC(=O)c1c(O)c(=O)cc(CNS(=O)(=O)c2ccccc2Cl)n1C | – | 6300 |
| Cn1c(CNS(=O)(=O)c2cccc(Cl)c2)cc(=O)c(O)c1C(=O)O | – | 150 |
| Cc1cccc(S(=O)(=O)NCc2cc(=O)c(O)c(C(=O)NC(C)C)n2C)c1 | 36 | – |
| Cc1ccccc1S(=O)(=O)NCc1cc(=O)c(O)c(C(=O)NC(C)C)n1C | – | 4600 |
| Cn1c(CNS(=O)(=O)c2ccc(Cl)cc2)cc(=O)c(O)c1C(=O)O | – | 1140 |
| CNC(=O)c1c(O)c(=O)cc(CNS(=O)(=O)c2ccc(C)cc2)n1C | 10 | – |
| CNC(=O)c1c(O)c(=O)cc(CNS(=O)(=O)c2ccccc2C)n1C | – | 12200 |
